From patent US7425548B2, “Materials and methods for immune system stimulation” (Variety Chidren's Hospital, priority 2004, dated 2008)

Columns and labels:
RAW 264.7 cells = test: RR1-induced TNF-α synthesis with and without CAPE, ELISA; assay type: cell-based, mouse; settings: CAPE 10 μg/ml for 1 hour prior to RR1, all RR1 concentrations
Description: The cells were pre-incubated with 10 μg/ml CAPE for 1 hour in 0.5% FBS containing DMEM medium and replaced with medium containing RR1 at varying concentrations for 4 hour at 37° C. The medium was analyzed for secreted TNF-α using ELISA protocol.
RR1-induced TNF-α synthesis. RAW 264.7 cells (0.5×10^6/ml) were plated on 6-well plates with DMEM medium containing 0.5% FBS (starvation). Once the cells were attached, medium was replaced, RR1 was added at 0, 100, 500 and 1000 μg/ml doses and incubated at 37° C. for 24 hours. The medium was analyzed for the secreted TNF-α using the ELISA kit (BD BIOSCIENCES kit, San Jose, Calif.) based on the manufacturer's protocol.
To determine the effect of NF-κB inhibitor CAPE on TNF-α synthesis, RAW 264.7 cells were treated with 10 μg/ml of CAPE for 1 hour at 37° C. followed by treatment with RR1 (0-1000 μg/ml) overnight in the incubator. The secreted TNF-α in the medium was analyzed using ELISA (BD BIOSCIENCES, San Jose, Calif.).

RAW264.7 macrophages = test: Opsonized binding and phagocytosis of FITC-zymosan A bioparticles; assay type: cell-based, mouse; settings: 37° C.
Description: Monocytes were incubated with RR1 at 37° C. for 1 hour followed by FITC-labeled zymosan A bioparticles for another 1 hour at 37° C. The cells were washed and intracellular fluorescence measured in a Coulter Elite Flow cytometer.
Opsonized binding and Phagocytosis. To determine the effect of RR1 and laminarin on opsonized binding and phagocytosis of zymosan A particles, RAW 264.7 cells were treated with RR1 or laminarin (0 and 500 μg/ml) in DMEM at 37° C. for 1 hour. This will ensure the release of opsonins and facilitate opsonic binding. The cells were washed with PBS twice and incubated with zymosan A-FITC bioparticles at a ratio of 25 particles/cell at 37° C. for 1 hour. The cells were suspended in PBS after removing the unbound zymosan particles by extensive washing with the medium, and the intracellular fluorescence analyzed in a Coulter Elite flow cytometer. The fluorescence intensity was expressed as percentage of control.

## O=C(/C=C/c1ccc(O)c(O)c1)OCCc1ccccc1 [CAPE, caffeic acid phenethyl ester, reference compound]
RAW 264.7 cells
  effect on RR1-induced TNF-α synthesis: completely inhibited

## Laminarin [reference compound]
RAW264.7 macrophages; 500 μg/ml, 1 hour
  inhibitory effect on opsonized binding and phagocytosis of zymosan A bioparticles: absolute inhibitory effect
RAW264.7 macrophages; opsonized
  inhibition of zymosan bioparticle internalization: about 90%
